Reference: patent publication US20240140953A1, “INHIBITORS OF MENIN-MLL INTERACTION” (BIOMEA FUSION, INC., priority 2018, published 2024)
pIC50, pKd: −log10 of the molar value. Read-outs that look alike come from different tables or passages of the source. Values belong to the compound of their own block, whether it stands above or below them.

Experiments:
[1] = molecular target: Menin-MLL (Homo sapiens (Human), UniProt O00255); test: Menin-MLL in vitro inhibitory activity (Example 101a, Table 2); type: cell-based
Sequence of Menin-MLL (O00255 whole entry): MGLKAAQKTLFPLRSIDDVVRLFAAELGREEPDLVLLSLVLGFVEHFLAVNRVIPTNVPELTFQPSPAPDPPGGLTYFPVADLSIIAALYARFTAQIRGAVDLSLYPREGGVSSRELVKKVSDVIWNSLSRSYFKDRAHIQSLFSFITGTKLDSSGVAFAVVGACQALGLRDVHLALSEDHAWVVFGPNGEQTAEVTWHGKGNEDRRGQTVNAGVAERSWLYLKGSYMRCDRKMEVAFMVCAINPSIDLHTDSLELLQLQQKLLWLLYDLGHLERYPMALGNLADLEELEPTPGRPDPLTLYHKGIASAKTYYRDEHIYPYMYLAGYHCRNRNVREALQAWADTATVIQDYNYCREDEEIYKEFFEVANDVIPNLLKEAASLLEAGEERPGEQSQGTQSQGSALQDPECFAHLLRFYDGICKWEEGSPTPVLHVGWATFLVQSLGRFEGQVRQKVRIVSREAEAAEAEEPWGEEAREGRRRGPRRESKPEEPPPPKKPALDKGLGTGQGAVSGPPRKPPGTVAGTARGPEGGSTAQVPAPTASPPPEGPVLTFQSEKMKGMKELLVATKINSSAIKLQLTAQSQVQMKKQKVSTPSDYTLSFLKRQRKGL

[2] = tested on: MV-4-11; test: Long term proliferation assay (Table 3A), MV-4-11; type: cell-based; details: Homo sapiens, MV4-11
Method: (§1) Example 5b: IC50 determination of compounds of invention in various cell lines (Long Term Proliferation Assay)
(§2) The following 5 cell lines are used or can be used for the long term proliferation assay.
(§3) Compounds of invention are tested in the 5 suspension lines by 14-day long-term proliferation assay.
(§4) The compound is tested in 10-pt dose titration (client will determine the starting concentration and the dilution scheme) and the final DMSO concentration is kept at 0.2%.
(§5) Vehicle and media control are also included. All treatments are done in triplicate.
(§6) 3 plates are used for each cell line and 15 plates are used for the 5 cell lines.
(§7) • 1) On Day 0, in a flat bottom 96-well plate, add 100 μL of cells per well at the densities optimized. • 2) Prepare compounds in DMSO at 500× final concentration. Dilute the compounds with DMSO at the dilution. • 3) Dilute the compounds in media at 3×final concentration. Add 50 μL of compound or DMSO at 3× final concentration to each well. Final volume in each well is 150 μL, and final concentration of DMSO is 0.2%. Also include 3 untreated control wells, by adding 50 μL of media alone. 4) Incubate plates for 96 hours. • 5) Count the cells using the Acumen, with capabilities for 96-well plates. Pipette cells up and down to mix in each well, and add desired volume of cells to a new flat bottom poly-D-lysine 96-well plate. Add Calcein AM at 1 μM final concentration. Let cells sit at RT for 10 mins followed by a quick spin to get cells settled on the bottom of the wells. Incubate the plate for additional 40 mins in the incubator. Take out the plate and read by Acumen. Calculate the cell numbers taken into account the dilution factors. • 6) Split the master plate. To do this take the total viable cell count calculated using step 5). Take the average of the replicates for each dose in order to be used in splitting the cells. • 7) Use a 96 well V-bottom plate to spin down the cells to remove old media and compound to split the cells. Based on the split ratio place the proper amount of media and cells into the V-bottom plate, and spin the plate at 1100 rpm for 5 minutes. • 8) Following the spin remove the media, careful not to disturb the cellpellet. • 9) Re-suspend pellet in 100 μL fresh media, and add to a new 96-well flat bottom plate. • 10) Add fresh compound, in the same manner as Step 3). • 11) Incubate plates for 72 hours. Repeat steps 5)-10) on Day 7. • 12) Incubate plates for 96 hours. Repeat Step 5)-10) on Day 11. • 13) Incubate 72 hours and repeat step 5) to take a final count. • 14) Data Analysis
(§8) To calculate growth for days 4, 7, 11, and 14: • Calculate the split factor for day 4 to 7, day 7 to 11, and day 11-14.

[3] = tested on: MOLM-13; test: Long term proliferation assay (Table 3A), MOLM-13; type: cell-based; details: Homo sapiens
Method: as §1, §2, §3, §4, §5, §6, §7, §8

[4] = molecular target: menin (Homo sapiens (Human), UniProt O00255); test: Kd (Table 3A); type: binding
Sequence of menin (O00255 whole entry, species assumed): as the sequence (O00255 whole entry) above

[5] = tested on: OCI-AML-3; test: Long term proliferation, Cell Titer-Glo (Table 3B), OCI-AML-3; type: cell-based; details: Homo sapiens, OCI-AML-3, Cell Titer-Glo
[6] = tested on: MOLM-13; test: Long term proliferation, Cell Titer-Glo (Table 3B), MOLM-13; type: cell-based; details: Homo sapiens, MOLM-13, Cell Titer-Glo
[7] = tested on: MV4-11; test: Long term proliferation, Cell Titer-Glo (Table 3B), MV4-11; type: cell-based; details: Homo sapiens, MV4-11, Cell Titer-Glo
[8] = tested on: KG-1; test: Long term proliferation, Cell Titer-Glo (Table 3B), KG-1; type: cell-based; details: Homo sapiens, KG-1, Cell Titer-Glo
[9] = tested on: KG-1; test: Long term proliferation, InCell (Table 3C), KG-1; type: cell-based; details: Homo sapiens, KG-1, InCell
Method: as §3, §4, §5, §7, §8

[10] = tested on: OCI-AML-3; test: Long term proliferation, InCell (Table 3C), OCI-AML-3; type: cell-based; details: Homo sapiens, OCI-AML-3, InCell
Method: as §3, §4, §5, §7, §8

[11] = tested on: MOLM-13; test: Long term proliferation, InCell (Table 3C), MOLM-13; type: cell-based; details: Homo sapiens, MOLM-13, InCell
Method: as §3, §4, §5, §7, §8

[12] = tested on: MV4-11; test: Long term proliferation, InCell (Table 3C), MV4-11; type: cell-based; details: Homo sapiens, MV4-11, InCell
Method: as §3, §4, §5, §7, §8

[13] = MV-4-11, Day 4, read-out: MV-4-11 Day 4 IC50
[14] = MV-4-11, Day 11, read-out: MV-4-11 Day 11 IC50
[15] = 96 h, MOLM-13, Day 4, read-out: MOLM-13 Day 4 IC50
[16] = 264 h, MOLM-13, Day 11, read-out: MOLM-13 Day 11 IC50
[17] = 96 h, Day 4, read-out: Day 4 IC50
[18] = 168 h, Day 7, read-out: Day 7 IC50
[19] = 264 h, Day 11, read-out: Day 11 IC50
[20] = 336 h, Day 14, read-out: Day 14 IC50

pIC50 [1]: 6.62
pIC50 [2, 13]: 6.76
pIC50 [2, 14]: 7.26
pIC50 [3, 15]: 7.13
pIC50 [3, 16]: 7.27
pKd [4]: < 6.00
Structure (SMILES): O=C(Nc1ccc(-c2cc3c(N4CCOCC4)ncnc3[nH]2)cc1)Nc1cc(-c2cccnc2)no1 [Compound 2, 1-(4-(4-morpholino-7H-pyrrolo[2,3-d]pyrimidin-6-yl)phenyl)-3-(3-(pyridin-3-yl)isoxazol-5-yl)urea]

pIC50 [2, 13]: 6.45
pIC50 [2, 14]: 7.15
pIC50 [5, 17]: 6.23
pIC50 [5, 18]: 6.25
pIC50 [5, 19]: 6.26
pIC50 [5, 20]: 6.26
pIC50 [6, 17]: 6.49
pIC50 [6, 18]: 6.70
pIC50 [6, 19]: 6.82
pIC50 [6, 20]: 6.60
pIC50 [3, 15]: 6.65
pIC50 [3, 16]: 7.26
pIC50 [7, 17]: 6.27
pIC50 [7, 18]: 7.00
pIC50 [7, 19]: 6.70
pIC50 [7, 20]: 7.22
pIC50 [10, 17]: 6.31
pIC50 [10, 19]: 6.27
pIC50 [11, 17]: 6.43
pIC50 [11, 19]: 6.72
pKd [4]: 6.60
pIC50 [12, 17]: 6.46
pIC50 [12, 19]: 6.55
Structure (SMILES): O=C(Nc1ccc(-c2cc3c(N4CCOCC4)ncnc3[nH]2)cc1)Nc1cc(-c2ccncc2)no1 [Compound 8, 1-{4-[4-(morpholin-4-yl)-7H-pyrrolo[2,3-d]pyrimidin-6-yl]phenyl}-3-[3-(pyridin-4-yl)-1,2-oxazol-5-yl]urea]
pIC50 [8, 17]: 5.31
pIC50 [8, 18]: 5.53
pIC50 [8, 19]: 5.67
pIC50 [8, 20]: 6.17
pIC50 [9, 17]: 5.49
pIC50 [9, 19]: 5.68
